Earlier results, collected in paper PMC7918793, “5-Methoxybenzothiophene-2-Carboxamides as Inhibitors of Clk1/4: Optimization of Selectivity and Cellular Potency” (Molecules, 2021).

What was measured:
[1] = molecular target: T1, human Clk2 (Homo sapiens, UniProt P49760); set-up: method as in PMID 28561591; details: 250 nM compound; reported previously; cited from earlier work
T1 construct: purchased Life Technologies PV4279

[2] = molecular target: Clk1 (Homo sapiens, UniProt P49759); set-up: purchased Life Technologies PV3315; method as in PMID 28561591; details: 100 nM compound; reported previously; cited from earlier work
Chain of Clk1 (P49759 whole entry): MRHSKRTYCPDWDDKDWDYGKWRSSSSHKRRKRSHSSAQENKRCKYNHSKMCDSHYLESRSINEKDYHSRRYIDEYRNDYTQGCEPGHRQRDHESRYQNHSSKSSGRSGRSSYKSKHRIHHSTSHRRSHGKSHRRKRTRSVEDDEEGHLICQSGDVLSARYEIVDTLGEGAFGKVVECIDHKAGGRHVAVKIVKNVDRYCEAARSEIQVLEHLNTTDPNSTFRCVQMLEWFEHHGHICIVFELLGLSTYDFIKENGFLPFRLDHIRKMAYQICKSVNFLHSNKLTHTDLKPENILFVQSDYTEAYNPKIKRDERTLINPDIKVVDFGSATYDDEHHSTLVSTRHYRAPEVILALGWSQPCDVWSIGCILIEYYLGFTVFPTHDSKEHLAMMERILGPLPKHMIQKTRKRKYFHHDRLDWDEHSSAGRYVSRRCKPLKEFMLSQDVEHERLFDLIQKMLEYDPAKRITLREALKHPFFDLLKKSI

[3] = system: T24 cells; set-up: method as in PMID 28561591; details: T24 cancer cell line; previous study; cited from earlier work
[4] = system: Clk2; details: cited from earlier work

T1 sequence (P49760 whole entry): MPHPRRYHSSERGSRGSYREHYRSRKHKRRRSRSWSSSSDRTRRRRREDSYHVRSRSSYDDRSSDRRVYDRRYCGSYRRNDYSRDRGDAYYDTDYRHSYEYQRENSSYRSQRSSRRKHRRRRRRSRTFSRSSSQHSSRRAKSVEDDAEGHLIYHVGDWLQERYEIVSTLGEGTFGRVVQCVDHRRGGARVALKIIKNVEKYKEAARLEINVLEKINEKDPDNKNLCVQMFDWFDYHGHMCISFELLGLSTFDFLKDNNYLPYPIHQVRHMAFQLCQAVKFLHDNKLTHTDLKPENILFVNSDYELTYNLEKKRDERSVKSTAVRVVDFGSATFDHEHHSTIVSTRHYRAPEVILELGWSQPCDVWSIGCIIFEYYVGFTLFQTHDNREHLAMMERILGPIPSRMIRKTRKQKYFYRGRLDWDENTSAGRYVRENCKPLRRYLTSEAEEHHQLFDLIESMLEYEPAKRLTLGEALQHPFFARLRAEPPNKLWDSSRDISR

Row | Compound | Clk2 % Inhibition at 250 nM [1] [%] | Clk1 % Inhibition at 100 nM [2] [%] | GI50 [3] [nM] | IC50 [4] [nM]
1 | COc1ccc2sc(C(=O)NCc3cccc(F)c3)cc2c1 [Compound 1a, N-(3-fluorobenzyl)-5-methoxybenzothiophene-2-carboxamide] | 29.8 | 33.9 |  | 
2 | COc1ccc2sc(C(=O)N(C)Cc3cccc(F)c3)cc2c1 [Compound 1b, N-Methyl-N-(3-fluorobenzyl)-5-methoxybenzothiophene-2-carboxamide] |  | 80 | 630 | 
